Measured values published in patent publication US8957096B2, “Herbicidally active oxime-ether-substituted benzoylamides” (Bayer Intellectual Property GmbH, priority 2011, dated 2015).

Experiments:
Format in all cases: in vivo
[1] = tested on: Stellaria media; experiment: Post-emergence herbicidal action against harmful plants; conditions: 504 h, application rate 80 g/ha, assessed visually after about 3 weeks vs untreated controls, read-out: herbicidal action in percent (%)
Description: (§1) 2. Post-Emergence Herbicidal Action Against Harmful Plants Seeds of monocotyledonous and dicotyledonous weed and crop plants are placed in sandy loam in wood-fiber pots, covered with soil and cultivated in a greenhouse under good growth conditions. 2 to 3 weeks after sowing, the test plants are treated at the one-leaf stage. The inventive compounds formulated in the form of wettable powders (WP) or as emulsion concentrates (EC) are then sprayed onto the green parts of the plants as an aqueous suspension or emulsion at a water application rate of 600 to 800 l/ha (converted) with addition of 0.2% wetting agent. After the test plants have been left to stand in the greenhouse under optimal growth conditions for about 3 weeks, the action of the formulations is assessed visually in comparison to untreated controls (herbicidal action in percent (%): 100% activity=the plants have died, 0% activity=like control plants). Here, the compounds Nos. 1-001, 1-002, 1-004, 1-005, 1-007, 1-008, 1-014, 1-015, 1-017, 1-018, 1-020, 1-033, 1-040, 1-041, 1-043, 1-044, 1-046, 1-047, 1-053, 1-054, 1-056, 1-057, 1-059, 1-060, 1-079, 1-080, 1-082, 1-083, 1-086, 1-092, 1-093, 1-095, 1-096, 1-098, 1-099, 2-015, 3-014, 3-015, 3-017, 3-018, 3-020, 5-082, 5-095, 6-017, 7-017 and 8-014 each show, at an application rate of 80 g/ha, an activity of at least 80% against Abuthilon theophrasti, Amaranthus retroflexus and Stellaria media. The compounds Nos. 4-092, 4-093, 5-004, 5-017, 5-043 and 5-056 each show, at an application rate of 80 g/ha, an activity of at least 80% against Echinocloa crus galli, Pharbitis purpureum and Stellaria media.

[2] = tested on: Abuthilon theophrasti; experiment: as above; conditions: 504 h, application rate 80 g/ha, assessed visually after about 3 weeks vs untreated controls, read-out: herbicidal action in percent (%)
Description: as §1

[3] = tested on: Amaranthus retroflexus; experiment: as above; conditions: 504 h, application rate 80 g/ha, assessed visually after about 3 weeks vs untreated controls, read-out: herbicidal action in percent (%)
Description: as §1

[4] = tested on: Abuthilon theophrasti; experiment: Pre-emergence herbicidal action against harmful plants; conditions: 504 h, application rate 320 g/ha, assessed visually after 3 weeks vs untreated controls, read-out: herbicidal activity in percent (%)
Source text: (§2) 1. Pre-Emergence Herbicidal Action Against Harmful Plants Seeds of monocotyledonous and dicotyledonous weed plants and crop plants are placed in wood-fiber pots in sandy loam and covered with soil. The compounds according to the invention, formulated in the form of wettable powders (WP) or as emulsion concentrates (EC), are then applied as aqueous suspension or emulsion at a water application rate of 600 to 800 l/ha (converted) with the addition of 0.2% of wetting agent to the surface of the covering soil. After the treatment, the pots are placed in a greenhouse and kept under good growth conditions for the test plants. The damage to the test plants is assessed visually after a test period of 3 weeks by comparison with untreated controls (herbicidal activity in percent (%): 100% activity=the plants have died, 0% activity=like control plants). Here, the compounds Nos. 1-002, 1-004, 1-007, 1-008, 1-043, 1-044, 1-046, 1-047, 1-060, 1-079, 1-080, 1-082, 1-083, 1-085, 1-095, 1-096, 1-098, 1-099, 1-059, 2-015, 3-015, 3-018, 3-020, 4-001, 4-118, 5-004, 5-017, 5-043, 5-056, 5-082, 5-095, 6-017, 7-017, 8-017 and 8-014, for example, each show, at an application rate of 320 g/ha, an activity of at least 80% against Abuthilon theophrasti and Amaranthus retroflexus. The compounds Nos. 1-001, 1-005, 1-014, 1-015, 1-017, 1-018, 1-020, 1-033, 1-040, 1-041, 1-053, 1-054, 1-056, 1-057, 1-092, 1-093, 3-014, 3-015, 8-014, 8-017 and 8-015 each show, at an application rate of 320 g/ha, an activity of at least 80% against Setaria viridis and Stellaria media. The compounds Nos. 3-017, 4-092 and 6-004 show, at an application rate of 320 g/ha, an activity of at least 80% against Amaranthus retroflexus and Veronica persica.

[5] = tested on: Amaranthus retroflexus; experiment: as above; conditions: 504 h, application rate 320 g/ha, assessed visually after 3 weeks vs untreated controls, read-out: herbicidal activity in percent (%)
Source text: as §2

[6] = tested on: Stellaria media; experiment: as above; conditions: 504 h, application rate 320 g/ha, assessed visually after 3 weeks vs untreated controls, read-out: herbicidal activity in percent (%)
Source text: as §2

[7] = tested on: Setaria viridis; experiment: as above; conditions: 504 h, application rate 320 g/ha, assessed visually after 3 weeks vs untreated controls, read-out: herbicidal activity in percent (%)
Source text: as §2

CCCn1nnnc1NC(=O)c1ccc(Cl)c(/C=N/OCC)c1Cl [1-080]
≥ 80%: pest or weed control at 80 g/ha [1] | pest or weed control at 80 g/ha [2] | pest or weed control at 80 g/ha [3] | pest or weed control at 320 g/ha [4] | pest or weed control at 320 g/ha [5]

CCCn1nnnc1NC(=O)c1ccc(S(C)(=O)=O)c(/C=N/OC)c1Cl [1-092]
≥ 80%: pest or weed control at 80 g/ha [1] | pest or weed control at 80 g/ha [2] | pest or weed control at 80 g/ha [3] | pest or weed control at 320 g/ha [6] | pest or weed control at 320 g/ha [7]

CO/N=C/c1c(Cl)ccc(C(=O)Nc2nnnn2C)c1Cl [1-001]
≥ 80%: pest or weed control at 80 g/ha [1] | pest or weed control at 80 g/ha [2] | pest or weed control at 80 g/ha [3] | pest or weed control at 320 g/ha [6] | pest or weed control at 320 g/ha [7]

CC(C)=NOCc1c(S(C)(=O)=O)ccc(C(=O)Nc2nnc(C)o2)c1Cl [8-017]
≥ 80%: pest or weed control at 320 g/ha [6] | pest or weed control at 320 g/ha [4] | pest or weed control at 320 g/ha [5] | pest or weed control at 320 g/ha [7]

CO/N=C/c1c(Cl)ccc(C(=O)Nc2nnc(C)o2)c1Cl [4-001]
≥ 80%: pest or weed control at 320 g/ha [4] | pest or weed control at 320 g/ha [5]

CCn1nnnc1NC(=O)c1ccc(S(C)(=O)=O)c(/C=N/OC)c1Cl [1-053]
≥ 80%: pest or weed control at 80 g/ha [1] | pest or weed control at 80 g/ha [2] | pest or weed control at 80 g/ha [3] | pest or weed control at 320 g/ha [6] | pest or weed control at 320 g/ha [7]

CCn1nnnc1NC(=O)c1ccc(Cl)c(/C=N/OC)c1Cl [1-040]
≥ 80%: pest or weed control at 80 g/ha [1] | pest or weed control at 80 g/ha [2] | pest or weed control at 80 g/ha [3] | pest or weed control at 320 g/ha [6] | pest or weed control at 320 g/ha [7]

CC(C)=NOCc1c(S(C)(=O)=O)ccc(C(=O)Nc2ncnn2C)c1Cl [6-017, 2-chloro-4-(methylsulfonyl)-N-(1-methyl-1H-1,2,4-triazol-5-yl)-3-{[(propan-2-ylideneamino)oxy]methyl}benzamide]
≥ 80%: pest or weed control at 80 g/ha [1] | pest or weed control at 80 g/ha [2] | pest or weed control at 80 g/ha [3] | pest or weed control at 320 g/ha [4] | pest or weed control at 320 g/ha [5]

CCn1nnnc1NC(=O)c1ccc(S(C)(=O)=O)c(CON=C(C)C)c1Cl [5-056]
≥ 80%: pest or weed control at 80 g/ha [1] | pest or weed control at 320 g/ha [4] | pest or weed control at 320 g/ha [5]

CCCn1nnnc1NC(=O)c1ccc(Cl)c(/C=N/OC)c1Cl [1-079]
≥ 80%: pest or weed control at 80 g/ha [1] | pest or weed control at 80 g/ha [2] | pest or weed control at 80 g/ha [3] | pest or weed control at 320 g/ha [4] | pest or weed control at 320 g/ha [5]

CCO/N=C/c1c(S(C)(=O)=O)ccc(C(=O)Nc2nnnn2C)c1Cl [1-015]
≥ 80%: pest or weed control at 80 g/ha [1] | pest or weed control at 80 g/ha [2] | pest or weed control at 80 g/ha [3] | pest or weed control at 320 g/ha [6] | pest or weed control at 320 g/ha [7]

CO/N=C/c1c(S(C)(=O)=O)ccc(C(=O)Nc2nnnn2C)c1Cl [1-014]
≥ 80%: pest or weed control at 80 g/ha [1] | pest or weed control at 80 g/ha [2] | pest or weed control at 80 g/ha [3] | pest or weed control at 320 g/ha [6] | pest or weed control at 320 g/ha [7]

CC(C)=NOCc1c(S(C)(=O)=O)ccc(C(=O)Nc2nnnn2C)c1Cl [5-017]
≥ 80%: pest or weed control at 80 g/ha [1] | pest or weed control at 320 g/ha [4] | pest or weed control at 320 g/ha [5]

C=NOCc1c(S(C)(=O)=O)ccc(C(=O)Nc2nnc(C)o2)c1Cl [8-014]
≥ 80%: pest or weed control at 80 g/ha [1] | pest or weed control at 80 g/ha [2] | pest or weed control at 80 g/ha [3] | pest or weed control at 320 g/ha [6] | pest or weed control at 320 g/ha [4] | pest or weed control at 320 g/ha [5] | pest or weed control at 320 g/ha [7]
